Consider 2 compounds from PMC5983823, “Screening of Natural Product Derivatives Identifies Two Structurally Related Flavonoids as Potent Quorum Sensing Inhibitors against Gram-Negative Bacteria” (International Journal of Molecular Sciences, 2018).

Experiment [1] has as its system C. violaceum ATCC 31532. Description: Violacein extraction assay (QS-mediated violacein production). It counts as cell-based, Chromobacterium violaceum. The note with it: Chromobacterium violaceum; for inhibition at 400 µM: ATCC31532, 24 h, primary screening, 24 h, C. violaceum ATCC 31532, read-out: Inhibition-% of violacein production; for IC50: ATCC31532, C. violaceum ATCC 31532, 15 concentration points, read-out: IC50 of violacein production. The method, then:
(§1) The initial screening of compound library was conducted using two strains of C. violaceum as model bacterium, and two assays (violacein extraction and resazurin staining) in parallel as recently optimized in [26]. For the screening assays, overnight cultures of C. violaceum were diluted in LB broth supplemented with yeast extract (LBY) (0.1% w/v, Sigma Aldrich, St. Louis, MO, USA). Culture of C. violaceum CV026 was further supplemented with 0.5 µM N-(β-ketocaproyl)-L-Homoserine lactone (3-O-C6-(L)-HSL, Cayman chemicals, Ann Arbor, MI, USA) to induce the violacein production. Bacteria (10^6 CFU/mL) was exposed to compounds (400 µM) in a total volume of 200 µL in 96-microtiter well plates (Nunc, Roskilde, Denmark), and incubated at 27 °C, with shaking at 200 rpm for 24 h. DMSO was added in untreated control wells and bacteria-free wells with only LBY were included controls. Additionally, autoinducer-free wells containing only bacteria were included in C. violaceum CV026 plates. Plates were prepared in duplicates. Quercetin dihydrate (Carl Roth GmbH, Karlsruhe, Germany) at 400 µM was used as positive control in violacein extraction assay, and azithromycin (Cayman chemicals, Ann Arbor, MI, USA) at 10 µM in viability assay. Both control compounds were prepared in DMSO. DMSO concentration was 2.5% throughout the experiments.
(§2) After incubation period of 24 h, plates were centrifuged (Allegra™ X-12R Benchtop centrifuge, Beckman Coulter Inc., Fullerton, CA, USA) at 3000 rpm for 10 min to precipitate the violacein. Supernatants were discarded from the wells by pipetting, and pellets were re-suspended in 200 μL of 96% ethanol by scraping and mixing followed by centrifugation (3000 rpm, 10 min). Thereafter, 100 μL of supernatants were transferred to sterile 96-microtiter well plates, and violacein was quantified by reading the optical density at 595 nm using Varioskan Flash. Inhibition of violacein production was expressed as inhibition percentages of the untreated biofilms (Equation (1)):Inhibition-% = [(untreated control OD595 − sample OD595)/(untreated control OD595 − media control OD595)] × 100%(1) in which untreated control = C. violaceum + DMSO, media control = LBY, and sample = C. violaceum treated with a compound. Later on, violacein extraction assay was also utilized for the determination of half inhibitory concentrations of the compounds.

In experiment [2] the test system is C. violaceum CV026. Description: Violacein extraction assay (QS-mediated violacein production), mutant strain with exogenous autoinducer. The note with it: Chromobacterium violaceum, CV026, 24 h, read-out: Inhibition-% of violacein production. It counts as cell-based, Chromobacterium violaceum. As to the method:
as §1, §2

Experiment [3] has as its system E. coli K-12. As to the kind of experiment: Crystal violet staining assay, transition from microcolonies to fully formed biofilms. The class given is cell-based. The note with it: Escherichia coli, K12, E. coli K-12, mean ± SD, read-out: Inhibitory activity on the transition from microcolonies to fully formed biofilms. As to the method:
(§3) Crystal violet-based biomass staining assay was performed to assess the effects of the compounds on the transition from microcolonies to fully formed as recently described in [26] with minor modifications. Briefly, diluted cultures of exponentially grown P. aeruginosa ATCC 9027, ATCC 15442 and PA01, and E. coli K-12 (10^6 CFU/mL) were added to the 96-microtiter well plates (200 µL per well) to form microcolonies for two hours (37 °C). At the end of this period, bacterial suspensions were removed, compounds at a final concentration of 400 µM and fresh LB media were added, and plates were incubated at 37 °C, with shaking (200 rpm) for additional 22 h. After the incubation period, media was discarded and the biofilms were washed once with sterile Milli-Q (MQ)-water. Biomass was fixed with methanol for 15 min followed by staining with 0.23% (v/v) crystal violet (Sigma-Aldrich, Munich, Germany) solution prepared in MQ-water (200 µL per well) for 5 min. Thereafter, wells were washed twice with MQ-water and 200 µL of 96% ethanol was added to the wells. Absorbance was measured at 595 nm using Varioskan Flash after 1 h.

Experiment [4] has as its system P. aeruginosa ATCC 15422. The experiment is described as above. It counts as cell-based. The note with it: Pseudomonas aeruginosa, ATCC15422, read-out: Inhibitory activity on the transition from microcolonies to fully formed biofilms. As to the method:
as §3

For experiment [5], the system named is P. aeruginosa ATCC 9027. The description is as above. It counts as cell-based. The conditions noted are these: Pseudomonas aeruginosa, ATCC9027, P. aeruginosa ATCC 9027, mean ± SD, read-out: Inhibitory activity on the transition from microcolonies to fully formed biofilms. The method, then:
as §3

Experiment [6] concerns P. aeruginosa PAO1. The experiment is described as above. It counts as cell-based. The conditions noted are these: Pseudomonas aeruginosa, P. aeruginosa PAO1, mean ± SD, read-out: Inhibitory activity on the transition from microcolonies to fully formed biofilms. As to the method: as §3
For experiment [7], the system named is P. aeruginosa PAO1. As to the kind of experiment: Swarming motility assay. The class given is cell-based. The note with it: Pseudomonas aeruginosa, PAO1, read-out: Inhibition of swarming motility. The method, then:
Assays were performed according to the protocols previously described in [30, 74] with some modifications. The swarming agar was prepared in MQ-water consisting of 0.3% (w/v) agar, 1% (w/v) peptone, 0.5% (w/v) yeast extract and 0.5% (w/v) sodium chloride, and the swimming agar similarly but without yeast extract. Compounds at a final concentration of 400 µM and 100 µM were pre-mixed with 5 mL of agar, and poured over solidified LB agar plates (10 mL/petri dish) as overlays. The plates were allowed to dry at 30 °C for three hours followed by point inoculation with 2 µL of P. aeruginosa PAO1 (~10^8 CFU/mL) and incubation at 37 °C for 18 h. Quercetin was used as a control. Diameters of the swarming and swimming zones were measured after the incubation periods.

Experiment [8] relates to E. coli K-12. As to the kind of experiment: Viable plate counts (bacterial growth). The class given is cell-based, Escherichia coli. The note with it: 100 and 400 µM, 24 h. The method, then: Effects of the leads on bacterial growth were assessed by performing viable plate counts. Compounds at final concentrations of 100 and 400 µM and cultures of P. aeruginosa (ATCC 9027, ATCC 15422 and PA01) and E. coli K-12 (10^6 CFU/mL) were simultaneously added to the 96-microtiter well plates (200 µL per well). Untreated bacteria were included in control wells. The plates were incubated at 37 °C, without shaking for 24 h. At the end of this period, bacterial suspensions were transferred from the wells to Eppendorf tubes, and the tubes were sonicated for 10 min (25 °C, 35 kHz, Sonorex Digitec water bath (Bandelin, Zurich, Switzerland)). Each suspension was serially diluted in LB and plated on LB agar. The number of viable bacteria in each test concentration was counted after overnight incubation at 37 °C. Results were expressed as CFU/mL.

For experiment [9], the system named is C. violaceum. Further details: method as in PMID 27626397. The conditions noted are these: cited from earlier work.

Structures are written as SMILES.

Consider `CCC(=O)Oc1c(-c2ccccc2Cl)oc2ccccc2c1=O` [Compound 2117, 2-(2-chlorophenyl)-4-oxochromen-3-yl propanoate], for which the inhibition at 400 µM in [1] was 102%; in experiment [2], 102%; in experiment [3], 51.3 ± 6.9%; in [4] it was 11.2 ± 1.8%; in experiment [5], 27.2 ± 6%; in experiment [6], 42.3 ± 12.4%. Further, the inhibition at 400 µM in experiment [7] is 72.1%. Besides, in experiment [1], the IC50 is 9.6 µM. Besides, the “Bactericidal activity by viable plate counts” value in [8] is recorded as “Neither of the leads displayed any bactericidal activity”. Also, the “Anti-QS activity class in earlier screening” value in experiment [9] was “among the most active compounds”.
Consider `CCCCCCCCCC(=O)Oc1c(-c2ccc(OC)cc2)oc2ccccc2c1=O` [Compound 2896, 2-(4-methoxyphenyl)-4-oxochromen-3-yl decanoate], for which the inhibition at 400 µM amounted to 94.5% in experiment [1]; 91.2% in [2]; 14.3 ± 10.1% in [3]; 28.1 ± 15.1% in experiment [4]; 22.5 ± 3.2% in experiment [5]; 11.6 ± 11.1% in experiment [6]. Further, the inhibition at 400 µM in experiment [7] came to 69.8%. In addition, in experiment [1], the IC50 came out at 13.9 µM. Also, the “Bactericidal activity by viable plate counts” value in [8] is “Neither of the leads displayed any bactericidal activity”.

By IC50 is commonly meant the midpoint of a concentration-inhibition curve.
